From patent US20130216630A1, “BIOMATERIALS FOR USE IN METHODS OF BONE REPLACEMENT THERAPY” (UNIVERSITY OF WITWATERSRAND, JOHANNESBURG, priority 2010, published 2013)
Entries after “also recorded” stand apart in the source; their conditions may differ.

Experiments:
[1] = test system: osteogenic protein-1 (OP-1) gene expression; experiment: qTR-PCR analyses of harvested biomaterial constructs; assay type: in vivo; conditions: harvested constructs pre-treated with 0.24 mg zoledronate; Papio ursinus rectus abdominis
From the text: It is important to note that in specimens with bone formation by induction there is always expression of the OP-1 gene, i.e. there is a direct correlation between the induction of bone and the expression of the OP-1 gene.

[2] = test system: rectus abdominis muscle of Papio ursinus; experiment: Heterotopic implantation of macroporous 7% HA/CC constructs in rectus abdominis muscle, histological evaluation of bone induction; assay type: in vivo; conditions: coral-derived 7% HA/CC macroporous constructs pre-loaded with 0.24 mg zoledronate; intramuscular (rectus abdominis) implantation in adult Papio ursinus; harvested 90 days after implantation
Protocol: Topographical modification of the implanted constructs may be of the utmost importance for the differentiation of myoblastic/myoendothelial and/or perivascular/endothelial stem cells into osteoblastic-like cells. In order to study the effect of the osteoclastic activity on cell differentiation and the induction of bone formation, samples of solid porous construct compositions, typically macroporous hydroxyapatites were pre-loaded with 0.24 mg of the osteoclastic inhibitor biphosphonate zoledronate (Zometa®). Samples with and without zoledronate were then implanted in the rectus abdominis muscle of Papio ursinus.
A biomaterial to act, in use, as a platform for bone growth induction and/or bone growth was prepared. Said solid porous composition in the form of macroporous hydroxyapatite replicas of the calcium carbonate exoskeletal microstructure of the coral genus Goniopora was prepared by hydrothermal chemical exchange with phosphate [(5) Ripamonti, U. J Bone Joint Surg Am 1991; 73:692-703; (6) Ripamonti U, Richter P W, Nilen R W N, Renton L., J Cell Mol Med 2008; 12:1029-48., (7) Shors EC, Orthop Clin North Am 1999:30:599-613; (8) Ripamonti U, van den Heever B, van Wyk J., Matrix 1993;13:491-502; (9) Ripamonti, R. M. Klar, L. F. Renton, C Ferretti., Biomaterials, 31, 6400-6410 (2010). The entirety of which are incorporated by reference herein]. […]

**Q.** With `O=P(O)(O)C(O)(Cn1ccnc1)P(=O)(O)O` [zoledronate] as the molecule, how does the “osteogenic protein-1 (OP-1) gene expression” value [1] read?
**A.** dramatic reduction

**Q.** And the “induction of bone formation / differentiation of bone within macroporous spaces (histology)” value [2]?
**A.** lack of bone induction and/or bone growth; also recorded: either did not induce the differentiation of bone at all, or the induction was considerably inhibited; also recorded: In two specimens, the spontaneous induction of bone formation was altogether absent; also recorded: minor amounts of bone had formed by induction at the periphery; also recorded: very limited bone formation
